Measured values published in ChEMBL document CHEMBL1201862, “PubChem BioAssay data set” (2004).
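Interpolation was linear, between the two tested concentrations surrounding the appropriate level; five concentrations were tested over 48 hours in 96-well plates. GI50 marks 50% less growth.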 Activity calls are given as the source filed them. No stated cut-off is given here; in the data, active = GI50 up to about 1.1 µM and inactive = higher.

Legend:
Assay in all cases: DTP human tumour cell line panel, 48 h
RPMI-8226 = tested on: RPMI-8226
LOX IMVI = tested on: LOX IMVI
OVCAR-8 = tested on: OVCAR-8
SF-295 = tested on: SF-295
SW-620 = tested on: SW-620
SN12C = tested on: SN12C
UACC-257 = tested on: UACC-257
A549 = tested on: A549
SNB-75 = tested on: SNB-75
CCRF-CEM = tested on: CCRF-CEM
TK-10 = tested on: TK-10
UACC-62 = tested on: UACC-62
KM12 = tested on: KM12
EKVX = tested on: EKVX
K562 = tested on: K562
SK-OV-3 = tested on: SK-OV-3
MCF7 = tested on: MCF7
HCT-15 = tested on: HCT-15
COLO 205 = tested on: COLO 205
T47D = tested on: T47D
SK-MEL-28 = tested on: SK-MEL-28
HOP-62 = tested on: HOP-62
IGROV-1 = tested on: IGROV-1
RXF 393 = tested on: RXF 393
HT-29 = tested on: HT-29
SK-MEL-5 = tested on: SK-MEL-5
M14 = tested on: M14
DU-145 = tested on: DU-145
HCC 2998 = tested on: HCC 2998
NCI-H23 = tested on: NCI-H23
MDA-N = tested on: MDA-N
SR = tested on: SR
SF-268 = tested on: SF-268
MOLT-4 = tested on: MOLT-4
Malme-3M = tested on: Malme-3M
786-0 = tested on: 786-0
CAKI-1 = tested on: CAKI-1
MDA-MB-231 = tested on: MDA-MB-231
PC-3 = tested on: PC-3
MDA-MB-435 = tested on: MDA-MB-435
HL-60 = tested on: HL-60
ACHN = tested on: ACHN
UO-31 = tested on: UO-31
BT-549 = tested on: BT-549
NCI-H226 = tested on: NCI-H226
OVCAR-5 = tested on: OVCAR-5
HCT-116 = tested on: HCT-116
OVCAR-3 = tested on: OVCAR-3
HOP-92 = tested on: HOP-92
SK-MEL-2 = tested on: SK-MEL-2
NCI/ADR-RES = tested on: NCI/ADR-RES
SF-539 = tested on: SF-539
Hs-578T = tested on: Hs-578T
NCI-H522 = tested on: NCI-H522
OVCAR-4 = tested on: OVCAR-4
U-251 = tested on: U-251
NCI-H460 = tested on: NCI-H460
SNB-19 = tested on: SNB-19
A498 = tested on: A498

Cc1c(CCCl)c(N=P(c2ccccc2)(c2ccccc2)c2ccccc2)n2c(nc3ccccc32)c1C#N was tested, and the GI50 (RPMI-8226) was > 10 µM (inactive), the GI50 (LOX IMVI) was > 10 µM (inactive) and the GI50 (OVCAR-8) was > 10 µM (inactive). The GI50 (SF-295) was > 10 µM (inactive), the GI50 (SW-620) was > 10 µM (inactive) and the GI50 (SN12C) was > 10 µM (inactive). For the same compound, the GI50 (UACC-257) was > 10 µM (inactive), the GI50 (A549) was > 10 µM (inactive) and the GI50 (SNB-75) was > 10 µM (inactive). For the same compound, the GI50 (CCRF-CEM) was 4.67 µM (inactive), the GI50 (TK-10) was > 10 µM (inactive) and the GI50 (UACC-62) was > 10 µM (inactive). For the same compound, the GI50 (KM12) was > 10 µM (inactive), the GI50 (EKVX) was > 10 µM (inactive) and the GI50 (K562) was > 10 µM (inactive). The GI50 (SK-OV-3) was > 10 µM (inactive), the GI50 (MCF7) was > 10 µM (inactive) and the GI50 (HCT-15) was over 10 µM. The GI50 (COLO 205) was > 10 µM (inactive), the GI50 (T47D) was > 10 µM (inactive) and the GI50 (SK-MEL-28) was > 10 µM (inactive). For the same compound, the GI50 (HOP-62) was > 10 µM (inactive), the GI50 (IGROV-1) was > 10 µM (inactive) and the GI50 (RXF 393) was > 10 µM (inactive). The GI50 (HT-29) was 5.79 µM (inactive), the GI50 (SK-MEL-5) was > 10 µM (inactive) and the GI50 (M14) was > 10 µM (inactive). For the same compound, the GI50 (DU-145) was > 10 µM (inactive), the GI50 (HCC 2998) was > 10 µM (inactive) and the GI50 (NCI-H23) was > 10 µM (inactive). The GI50 (MDA-N) was > 10 µM (inactive), the GI50 (SR) was > 10 µM (inactive) and the GI50 (SF-268) was > 10 µM (inactive). For the same compound, the GI50 (MOLT-4) was > 10 µM (inactive), the GI50 (Malme-3M) was > 10 µM (inactive) and the GI50 (786-0) was > 10 µM (inactive). The GI50 (CAKI-1) was > 10 µM (inactive), the GI50 (MDA-MB-231) was > 10 µM (inactive) and the GI50 (PC-3) was > 10 µM (inactive).

COC(=O)c1ccc(/C=C(\c2ccc([N+](=O)[O-])o2)S(=O)(=O)c2ccc(NC(C)=O)cc2)o1 was tested, and the GI50 (RPMI-8226) was 1.22 µM (inactive), the GI50 (OVCAR-8) was 3.42 µM (inactive) and the GI50 (SF-295) was 17.5 µM (inactive). For the same compound, the GI50 (SW-620) was 3.63 µM (inactive), the GI50 (SN12C) was 0.0579 µM (active) and the GI50 (UACC-257) was 1.98 µM (inactive). The GI50 (A549) was 16.7 µM (inactive), the GI50 (MDA-MB-435) was 3.82 µM (inactive) and the GI50 (SNB-75) was 19.3 µM (inactive). The GI50 (HL-60) was 3.03 µM (inactive), the GI50 (ACHN) was 3.09 µM (inactive) and the GI50 (TK-10) was 4.97 µM (inactive). The GI50 (UO-31) was 4.49 µM (inactive), the GI50 (UACC-62) was 2 µM (inactive) and the GI50 (BT-549) was 0.565 µM (active). For the same compound, the GI50 (KM12) was 13.4 µM (inactive), the GI50 (EKVX) was 11.9 µM (inactive) and the GI50 (K562) was 4.15 µM (inactive). For the same compound, the GI50 (SK-OV-3) was 19 µM (inactive), the GI50 (NCI-H226) was 3.04 µM (inactive) and the GI50 (MCF7) was 5.36 µM (inactive). The GI50 (HCT-15) was 2.45 µM, the GI50 (COLO 205) was 2.9 µM (inactive) and the GI50 (OVCAR-5) was 3.8 µM (inactive). For the same compound, the GI50 (HCT-116) was 2.46 µM (inactive), the GI50 (OVCAR-3) was 5.9 µM (inactive) and the GI50 (T47D) was 18.4 µM (inactive). For the same compound, the GI50 (HOP-92) was 10.3 µM (inactive), the GI50 (SK-MEL-28) was 4.69 µM (inactive) and the GI50 (HOP-62) was 14.4 µM (inactive). The GI50 (IGROV-1) was 12.9 µM (inactive), the GI50 (RXF 393) was 3.69 µM (inactive) and the GI50 (HT-29) was 2.59 µM (inactive). The GI50 (SK-MEL-2) was 15.9 µM (inactive), the GI50 (SK-MEL-5) was 3.93 µM (inactive) and the GI50 (M14) was 4.14 µM (inactive). The GI50 (DU-145) was 10.1 µM (inactive), the GI50 (NCI/ADR-RES) was 14.2 µM (inactive) and the GI50 (SF-539) was 4.2 µM (inactive). The GI50 (Hs-578T) was 2.1 µM (inactive), the GI50 (NCI-H23) was 13.9 µM (inactive) and the GI50 (NCI-H522) was 2.03 µM (inactive). The GI50 (SR) was 1.77 µM (inactive), the GI50 (SF-268) was 13.6 µM (inactive) and the GI50 (MOLT-4) was 2.83 µM (inactive). The GI50 (OVCAR-4) was 2.22 µM (inactive), the GI50 (U-251) was 14.1 µM (inactive) and the GI50 (Malme-3M) was 2.49 µM (inactive). The GI50 (NCI-H460) was 18.5 µM (inactive), the GI50 (786-0) was 3.43 µM (inactive) and the GI50 (CAKI-1) was 15.4 µM (inactive). For the same compound, the GI50 (SNB-19) was 16.9 µM (inactive), the GI50 (MDA-MB-231) was 2.01 µM (inactive) and the GI50 (PC-3) was 14.8 µM (inactive).

With Brc1cccc[n+]1-c1ccc2cc(-[n+]3ccccc3Br)ccc2c1 the GI50 (RPMI-8226) was 19.5 µM (inactive), the GI50 (LOX IMVI) was 16.3 µM (inactive) and the GI50 (OVCAR-8) was 43 µM (inactive). The GI50 (A498) was > 100 µM (inactive), the GI50 (SF-295) was 53.3 µM (inactive) and the GI50 (SW-620) was 44.5 µM (inactive). The GI50 (SN12C) was 42.4 µM (inactive), the GI50 (UACC-257) was > 100 µM (inactive) and the GI50 (A549) was 38.9 µM (inactive). For the same compound, the GI50 (MDA-MB-435) was 80.9 µM (inactive), the GI50 (HL-60) was 28.6 µM (inactive) and the GI50 (ACHN) was 17.7 µM (inactive). The GI50 (CCRF-CEM) was 34.1 µM (inactive), the GI50 (TK-10) was 18.3 µM (inactive) and the GI50 (UO-31) was 18.1 µM (inactive). The GI50 (UACC-62) was 45.1 µM (inactive), the GI50 (BT-549) was 97.9 µM (inactive) and the GI50 (KM12) was 20.8 µM (inactive). The GI50 (EKVX) was 47.6 µM (inactive), the GI50 (K562) was 59.2 µM (inactive) and the GI50 (SK-OV-3) was 3.01 µM (inactive). The GI50 (NCI-H226) was > 100 µM (inactive), the GI50 (MCF7) was 35.7 µM (inactive) and the GI50 (HCT-15) was 32.5 µM. The GI50 (COLO 205) was 31 µM (inactive), the GI50 (OVCAR-5) was 39.8 µM (inactive) and the GI50 (HCT-116) was 39.6 µM (inactive). The GI50 (OVCAR-3) was 19.8 µM (inactive), the GI50 (T47D) was 22.3 µM (inactive) and the GI50 (SK-MEL-28) was > 100 µM (inactive). For the same compound, the GI50 (HOP-62) was 27.6 µM (inactive), the GI50 (IGROV-1) was 11.4 µM (inactive) and the GI50 (RXF 393) was 32 µM (inactive). The GI50 (HT-29) was 29.1 µM (inactive), the GI50 (SK-MEL-2) was 32.2 µM (inactive) and the GI50 (SK-MEL-5) was 77.3 µM (inactive). For the same compound, the GI50 (M14) was > 100 µM (inactive), the GI50 (DU-145) was 14.8 µM (inactive) and the GI50 (NCI/ADR-RES) was 53.3 µM (inactive). For the same compound, the GI50 (SF-539) was 19.3 µM (inactive), the GI50 (Hs-578T) was 56.9 µM (inactive) and the GI50 (HCC 2998) was 46.1 µM (inactive). The GI50 (NCI-H23) was > 100 µM (inactive), the GI50 (NCI-H522) was 40.1 µM (inactive) and the GI50 (SF-268) was 31.8 µM (inactive). The GI50 (U-251) was 15.6 µM (inactive), the GI50 (Malme-3M) was 23.1 µM (inactive) and the GI50 (NCI-H460) was 30.2 µM (inactive). The GI50 (786-0) was 26.4 µM (inactive), the GI50 (CAKI-1) was > 100 µM (inactive) and the GI50 (SNB-19) was 72.8 µM (inactive). The GI50 (MDA-MB-231) was 24.2 µM (inactive) and the GI50 (PC-3) was > 100 µM (inactive).
